Measured values as given in patent US20180161314A1, “Methods for Treating Hyperuricemia and Related Diseases” (Ardea Biosciences, Inc., priority 2010, published 2018).

Experiments:
healthy adult subjects = test: Drug 1 / febuxostat cross-over interaction study in healthy adult subjects (Examples 10-12); format: in vivo, human; conditions: for % serum uric acid change, Mean: drug 1 200 mg qd, febuxostat 40 mg qd
Excerpt: Study Objectives • To compare the multiple-dose pharmacokinetics of febuxostat in the absence versus presence of drug 1 co-administration. • To compare the multiple-dose pharmacokinetics of drug 1 in the absence versus presence of febuxostat co-administration. • To measure the effects of drug 1 and febuxostat, both alone and in combination, on serum uric acid concentrations and amounts of urate excreted into urine. • To evaluate the safety and tolerability of multiple-doses of drug 1 and febuxostat, both alone or in combination.
The study is a two or three-panel, placebo-controlled (for drug 1), double-blinded (for drug 1 and matched placebo), randomized, cross-over study with up to 54 healthy adult subjects. Each panel consisting of 18 subjects is sequentially enrolled, starting with Panel 1 (200 mg once daily dose of drug 1 or placebo), followed by Panel 2 (400 mg once daily dose of drug 1 or placebo), and followed by optional Panel 3 (100 mg to 600 mg once daily dose of drug 1 or placebo). The placebo control is included in this study to better assess safety and tolerability and the serum urate lowering effect of drug 1 in combination with febuxostat. Serum urate levels may be influenced by frequent blood draws and meal contents; therefore, the true effect on serum urate levels can be determined by correcting for placebo (subtract serum urate effect in placebo subjects from serum urate effect in active subjects).
Subjects in each panel are randomly assigned to one of two treatment sequences (Sequence A or B) after all Baseline (Day −1) procedures have been completed. Each treatment sequence within a panel consists of 9 subjects randomly assigned to receive drug 1 (6 of 9 subjects) or matching placebo (3 of 9 subjects) in a double-blinded fashion. For each treatment sequence, single-agent drug treatment is administered on Days 1 to 7 (either open-label febuxostat or double-blinded drug 1 or matched placebo by random assignment), followed by combination treatment on Days 8 to 14, and completing with the alternative single-agent drug treatment on Days 15 to 21, as follows (Panel 1 shown in FIG. 2):
Sequence A: Days 1-7: Febuxostat, 40 mg (once daily) • Days 8 to 14: drug 1, 200 mg or placebo in combination with febuxostat (once daily) • Days 15-21: drug 1, 200 mg, or placebo (once daily) Sequence B: Days 1-7: drug 1, 200 mg, or placebo (once daily) • Days 8 to 14: drug 1, 200 mg or placebo in combination with febuxostat (once daily) • Days 15-21: Febuxostat, 40 mg (once daily) […]
Serial blood samples for PK and PD assessments are collected up to 24 hours after dosing on Days 7, 14, and 21. Urine (total catch) for assays of drug 1, creatinine, and uric acid are collected starting on Day −1 (pre-treatment baseline) and after dosing on Days 7, 14, and 21. Final safety assessments are completed when subjects return to the clinic at 7±1 days after discharge from the clinic on Day 22 (Follow-Up visit on Day 29). The total volume of blood collected from each subject is approximately 518 mL.
Screening procedures to determine subject eligibility are performed 28 days before the first dose of study drug (Day 1). A total of up to 54 subjects enrolled in up to 3 panels consisting of 2 sequences each, with 9 subjects per sequence (18 subjects per panel). Subjects withdrawing after dosing are not replaced.
Subjects in Panel 1 receive a 200 mg dose of drug 1 or placebo once daily for 14 days and a 40 mg dose of febuxostat once daily for 14 days. Subjects in Panel 2 receive a 400 mg dose of drug 1 or placebo once daily for 14 days and a 40 mg dose of febuxostat once daily for 14 days. Subjects in Panel 3 receive a 100-600 mg dose of drug 1 or placebo once daily for 14 days and a 40 mg dose of febuxostat once daily for 14 days.
Subjects in Sequence A begin dosing on Day 1 with febuxostat and take their first dose of drug 1 or placebo on Day 8. […]

PNP = molecular target: T1, PNP (Homo sapiens, UniProt P00491); conditions: cited from earlier work
T1 sequence (P00491 1-289): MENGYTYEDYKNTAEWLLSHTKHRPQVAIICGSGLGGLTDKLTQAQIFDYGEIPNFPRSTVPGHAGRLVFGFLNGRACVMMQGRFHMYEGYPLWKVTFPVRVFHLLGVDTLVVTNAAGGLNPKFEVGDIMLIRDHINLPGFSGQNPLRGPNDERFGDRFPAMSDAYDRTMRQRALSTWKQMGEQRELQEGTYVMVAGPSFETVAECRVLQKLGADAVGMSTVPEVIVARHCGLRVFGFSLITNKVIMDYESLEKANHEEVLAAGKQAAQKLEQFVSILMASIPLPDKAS

[1] = Week 1, Drug 1 200 mg alone, febuxostat 40 mg alone
[2] = Week 3, Drug 1 200 mg alone, febuxostat 40 mg alone

O=C(O)CSc1nnc(Br)n1-c1ccc(C2CC2)c2ccccc12 [Drug 1, Sodium 2-(5-bromo-4-(4-cyclopropylnaphthalen-1-yl)-4H-1,2,4-triazol-3-ylthio)acetate]
serum uric acid change from baseline, daily (healthy adult subjects; Day 1, Drug 1 200 mg, FBX 40 mg): −7.4% | serum uric acid change from baseline, daily (healthy adult subjects; Day 1, Drug 1 400 mg): −5.5% | % serum uric acid change, Mean (healthy adult subjects; Day 1): −14.8% | serum uric acid change from baseline, daily (healthy adult subjects; Day 2, Drug 1 200 mg, FBX 40 mg): −22.3% | serum uric acid change from baseline, daily (healthy adult subjects; Day 2, Drug 1 400 mg): −28.9% | % serum uric acid change, Mean (healthy adult subjects; Day 2): −26.3% | serum uric acid change from baseline, daily (healthy adult subjects; Day 3, Drug 1 200 mg, FBX 40 mg): −32.4% | serum uric acid change from baseline, daily (healthy adult subjects; Day 3, Drug 1 400 mg): −33.3% | % serum uric acid change, Mean (healthy adult subjects; Day 3): −34.7% | serum uric acid change from baseline, daily (healthy adult subjects; Day 4, Drug 1 200 mg, FBX 40 mg): −37.7% | serum uric acid change from baseline, daily (healthy adult subjects; Day 4, Drug 1 400 mg): −36.2% | % serum uric acid change, Mean (healthy adult subjects; Day 4): −31.6% | serum uric acid change from baseline, daily (healthy adult subjects; Day 5, Drug 1 200 mg, FBX 40 mg): −36% | serum uric acid change from baseline, daily (healthy adult subjects; Day 5, Drug 1 400 mg): −37.3% | % serum uric acid change, Mean (healthy adult subjects; Day 5): −31.3% | serum uric acid change from baseline, daily (healthy adult subjects; Day 6, Drug 1 200 mg, FBX 40 mg): −39.1% | serum uric acid change from baseline, daily (healthy adult subjects; Day 6, Drug 1 400 mg): −45.6% | % serum uric acid change, Mean (healthy adult subjects; Day 6): −36.2% | serum uric acid change from baseline, daily (healthy adult subjects; Day 7, Drug 1 200 mg, FBX 40 mg): −41.2% | serum uric acid change from baseline, daily (healthy adult subjects; Day 7, Drug 1 400 mg): −48.8% | % serum uric acid change, Mean (healthy adult subjects; Day 7): −40.7% | serum uric acid change from baseline, daily (healthy adult subjects; Day 8, Drug 1 200 mg, FBX 40 mg, alone or combined as labelled): −38.9% | serum uric acid change from baseline, daily (healthy adult subjects; Day 8, Drug 1 400 mg, alone or + FBX 40 mg as labelled): −42.5% | % serum uric acid change, Mean (healthy adult subjects; Day 8): −37.6% | serum uric acid change from baseline, daily (healthy adult subjects; Day 15, Drug 1 200 mg, FBX 40 mg, alone or combined as labelled): −54.8% | serum uric acid change from baseline, daily (healthy adult subjects; Day 15, Drug 1 400 mg, alone or + FBX 40 mg as labelled): −68.1% | serum uric acid change from baseline, daily (healthy adult subjects; Day 16, Drug 1 200 mg alone (week 3), FBX 40 mg alone): −42.5% | serum uric acid change from baseline, daily (healthy adult subjects; Day 16, Drug 1 400 mg alone (week 3)): −53.4% | serum uric acid change from baseline, daily (healthy adult subjects; Day 17, Drug 1 200 mg alone (week 3), FBX 40 mg alone): −37.5% | serum uric acid change from baseline, daily (healthy adult subjects; Day 17, Drug 1 400 mg alone (week 3)): −44.8% | serum uric acid change from baseline, daily (healthy adult subjects; Day 18, Drug 1 200 mg alone (week 3), FBX 40 mg alone): −32.8% | serum uric acid change from baseline, daily (healthy adult subjects; Day 18, Drug 1 400 mg alone (week 3)): −40.7% | serum uric acid change from baseline, daily (healthy adult subjects; Day 19, Drug 1 200 mg alone (week 3), FBX 40 mg alone): −25.9% | serum uric acid change from baseline, daily (healthy adult subjects; Day 19, Drug 1 400 mg alone (week 3)): −33.8% | serum uric acid change from baseline, daily (healthy adult subjects; Day 20, Drug 1 200 mg alone (week 3), FBX 40 mg alone): −33% | serum uric acid change from baseline, daily (healthy adult subjects; Day 20, Drug 1 400 mg alone (week 3)): −40% | serum uric acid change from baseline, daily (healthy adult subjects; Day 21, Drug 1 200 mg alone (week 3), FBX 40 mg alone): −32.4% | serum uric acid change from baseline, daily (healthy adult subjects; Day 21, Drug 1 400 mg alone (week 3)): −46.4% | serum uric acid change from baseline, daily (healthy adult subjects; Day 22, Drug 1 200 mg alone (week 3), FBX 40 mg alone): −32.8% | serum uric acid change from baseline, daily (healthy adult subjects; Day 22, Drug 1 400 mg alone (week 3)): −41.3% | Absolute sUA reduction from baseline, Intraday peak (healthy adult subjects; [1]): -3.1 mg/dL | Absolute sUA reduction from baseline, Trough (healthy adult subjects; [1]): -2.4 mg/dL | Percent sUA reduction from baseline, Intraday peak (healthy adult subjects; [1]): −50.4% | Percent sUA reduction from baseline, Trough (healthy adult subjects; [1]): −39.7% | Absolute sUA reduction from baseline, Intraday peak (healthy adult subjects; Week 1, Drug 1 400 mg alone): -4.2 mg/dL | Absolute sUA reduction from baseline, Trough (healthy adult subjects; Week 1, Drug 1 400 mg alone): -3.4 mg/dL | Percent sUA reduction from baseline, Intraday peak (healthy adult subjects; Week 1, Drug 1 400 mg alone): −60.7% | Percent sUA reduction from baseline, Trough (healthy adult subjects; Week 1, Drug 1 400 mg alone): −48.5% | Absolute sUA reduction from baseline, Intraday peak (healthy adult subjects; [2]): -2.8 mg/dL | Absolute sUA reduction from baseline, Trough (healthy adult subjects; [2]): -2.0 mg/dL | Percent sUA reduction from baseline, Intraday peak (healthy adult subjects; [2]): −48.5% | Percent sUA reduction from baseline, Trough (healthy adult subjects; [2]): −34.7% | Absolute sUA reduction from baseline, Intraday peak (healthy adult subjects; Week 3, Drug 1 400 mg alone): -3.6 mg/dL | Absolute sUA reduction from baseline, Trough (healthy adult subjects; Week 3, Drug 1 400 mg alone): -2.9 mg/dL | Percent sUA reduction from baseline, Intraday peak (healthy adult subjects; Week 3, Drug 1 400 mg alone): −56.9% | Percent sUA reduction from baseline, Trough (healthy adult subjects; Week 3, Drug 1 400 mg alone): −45.5% | Inhibition of PNP (PNP): does not significantly inhibit
